Reference: US11466023B2, “Combination of a Mcl-1 inhibitor and a standard of care treatment for hematologic cancers, uses and pharmaceutical compositions thereof” (LES LABORATOIRES SERVIER, priority 2017, dated 2022)
Read-outs that look alike come from different tables or passages of the source.

Columns and labels:
EOL-1 AML cell line = assay: Single agent cell viability (CellTiterGlo); assay type: cell-based; conditions: Homo sapiens, EOL1, 72 h; EOL-1, single agent, 3 days incubation, CellTiterGlo; read-out: IC50
Method: (§1) Cell lines were cultured at 37° C. in a humidified atmosphere containing 5% CO2 and expanded in T-150 flasks. […] In order to analyse the activity of the compounds as single agents, cells were seeded and treated with nine 2-fold serial dilutions of each compound dispensed individually directly into the cell assay plates. […] All the experiments were performed in triplicates. Luminescence was quantified on a multipurpose plate reader. Single agent IC50s were calculated using standard four-parametric curve fitting.

GDM-1 AML cell line = assay: Single agent cell viability (CellTiterGlo); assay type: cell-based; conditions: Homo sapiens, 72 h; GDM-1, single agent, 3 days incubation, CellTiterGlo; read-out: IC50
Method: as §1

HL-60 AML cell line = assay: Single agent cell viability (CellTiterGlo); assay type: cell-based; conditions: Homo sapiens, 72 h; HL-60, single agent, 3 days incubation, CellTiterGlo; read-out: IC50
Method: as §1

KG1 AML cell line = assay: Single agent cell viability (CellTiterGlo); assay type: cell-based; conditions: 72 h; KG1, single agent, 3 days incubation, CellTiterGlo; read-out: IC50
Method: as §1

KG1a AML cell line = assay: Single agent cell viability (CellTiterGlo); assay type: cell-based; conditions: Homo sapiens, KG-1a, 72 h; KG1a, single agent, 3 days incubation, CellTiterGlo; read-out: IC50
Method: as §1

Kasumi-1 AML cell line = assay: Single agent cell viability (CellTiterGlo); assay type: cell-based; conditions: Homo sapiens, 72 h; Kasumi-1, single agent, 3 days incubation, CellTiterGlo; read-out: IC50
Method: as §1

ML-2 AML cell line = assay: Single agent cell viability (CellTiterGlo); assay type: cell-based; conditions: 72 h; ML-2, single agent, 3 days incubation, CellTiterGlo; read-out: IC50
Method: as §1

MOLM-13 AML cell line = assay: Single agent cell viability (CellTiterGlo); assay type: cell-based; conditions: Homo sapiens, 72 h; MOLM-13, single agent, 3 days incubation, CellTiterGlo; read-out: IC50
Method: as §1

MV4; 11 AML cell line = assay: Single agent cell viability (CellTiterGlo); assay type: cell-based; conditions: Homo sapiens, 72 h; MV4; 11, single agent, 3 days incubation, CellTiterGlo; read-out: IC50
Method: as §1

Nomo-1 AML cell line = assay: Single agent cell viability (CellTiterGlo); assay type: cell-based; conditions: Homo sapiens, 72 h; Nomo-1, single agent, 3 days incubation, CellTiterGlo; read-out: IC50
Method: as §1

OCI-AML3 AML cell line = assay: Single agent cell viability (CellTiterGlo); assay type: cell-based; conditions: Homo sapiens, OCI-AML-3, 72 h; OCI-AML3, single agent, 3 days incubation, CellTiterGlo; read-out: IC50
Method: as §1

PL-21 AML cell line = assay: Single agent cell viability (CellTiterGlo); assay type: cell-based; conditions: 72 h; PL-21, single agent, 3 days incubation, CellTiterGlo; read-out: IC50
Method: as §1

THP-1 AML cell line = assay: Single agent cell viability (CellTiterGlo); assay type: cell-based; conditions: Homo sapiens, 72 h; THP-1, single agent, 3 days incubation, CellTiterGlo; read-out: IC50
Method: as §1

[1] = tested on: mononuclear cells from ALL patient samples; assay: Cell viability assay (sytox blue flow cytometry) in primary ALL samples; assay type: cell-based; conditions: Homo sapiens, 48 h, combination at 1:1 ratio, read-out: 50% lethal concentration (LC50)
Method: Bone marrow or peripheral blood samples from patients with ALL were collected after informed consent in accordance with guidelines approved by The Alfred Hospital Human research ethics committee. Mononuclear cells were isolated by Ficoll-Paque (GE Healthcare, Australia) density-gradient centrifugation, followed by red cell depletion in ammonium chloride (NH4Cl) lysis buffer at 37° C. for 10 minutes. Cells were then re-suspended in phosphate-buffered saline containing 2% Fetal Bovine serum (Sigma, Australia). Mononuclear cells were then suspended in RPMI-1640 (GIBCO, Australia) medium containing penicillin and streptomycin (GIBCO) and heat inactivated fetal bovine serum 15% (Sigma).
Freshly purified mononuclear cells from ALL patient samples were adjusted to a concentration of 2.5×10^5/ml and 100 μL of cells aliquoted per well into 96 well plates (Sigma). Cells were then treated with indicated drugs over a […] concentration range from 1 nM to 10 μM for 48 hours. For combinations assays, drugs were added at a 1:1 ratio from 1 nM to 10 μM and incubated at 37° C. 5% CO2. Cells were then stained with sytox blue nucleic acid stain (Invitrogen, Australia) and fluorescence measured by flow cytometric analysis using the LSR-II Fortessa (Becton Dickinson, Australia). FACSDiva software was used for data collection, and FlowJo software for analysis. Blast cells were gated using forward and side scatter properties. Viable cells excluding sytox blue were determined at 6 concentrations for each drug and the 50% lethal concentration (LC50, in μM) determined.

primary AML samples = primary AML samples (leukemic progenitor cells), 10 nM
[2] = tested on: normal human CD34+ progenitor cells; conditions: 10 nM

In the case of Nc1ccn([C@@H]2O[C@H](CO)[C@@H](O)[C@@H]2O)c(=O)n1 [Cytarabine, cytarabine], the IC50 (EOL-1 AML cell line) is reported as 90 nM, the IC50 (GDM-1 AML cell line) is reported as 30 nM and the IC50 (HL-60 AML cell line) is reported as 740 nM. For the same molecule, the IC50 (KG1 AML cell line) was 170 nM, the IC50 (KG1a AML cell line) was 240 nM and the IC50 (Kasumi-1 AML cell line) was 1020 nM. For the same molecule, the IC50 (ML-2 AML cell line) was 30 nM, the IC50 (MOLM-13 AML cell line) was 190 nM and the IC50 (MV4; 11 AML cell line) was 140 nM. The IC50 (Nomo-1 AML cell line) was 990 nM, the IC50 (OCI-AML3 AML cell line) was over 2000 nM and the IC50 (PL-21 AML cell line) was 100 nM. The IC50 (THP-1 AML cell line) was over 2000 nM, the CC50 ([1]; ALL patient sample 01-046-2018, 48 hours) was over 100 µM and the CC50 ([1]; ALL patient sample AH6031524, 48 hours) was 51.6 µM. For the same molecule, the CC50 ([1]; ALL patient sample AH6184311, 48 hours) was 88 µM, the CC50 ([1]; ALL patient sample AH6196680, 48 hours) was over 100 µM and the CC50 ([1]; ALL patient sample AH6198549, 48 hours) was 10.6 µM. The CC50 ([1]; ALL patient sample AH6258921, 48 hours) was over 100 µM, the CC50 ([1]; ALL patient sample AH7008157, 48 hours) was over 100 µM and the CC50 ([1]; ALL patient sample AH7024700, 48 hours) was 35.9 µM. It also gave a CC50 ([1]; ALL patient sample AH7104727, 48 hours) of over 100 µM, a CC50 ([1]; ALL patient sample TB 10-05-02, 48 hours) of over 100 µM and a CC50 ([1]; ALL patient sample TB 11-08-06, 48 hours) of over 100 µM. For the same molecule, the CC50 ([1]; ALL patient sample TB 15-06-05, 48 hours) was over 100 µM, the CC50 ([1]; ALL patient sample TB 17-06-18, 48 hours) was over 100 µM and the CC50 ([1]; ALL patient sample TB120803, 48 hours) was over 100 µM. For the same molecule, the CC50 ([1]; ALL patient sample TB151005, 48 hours) was over 100 µM, the clonogenic growth (primary AML samples) was “toxic” and the clonogenic growth [2] was “toxic”.
